Source: ChEMBL document CHEMBL5370608, “Selective and Bioavailable HDAC6 2-(Difluoromethyl)-1,3,4-oxadiazole Substrate Inhibitors and Modeling of Their Bioactivation Mechanism” (J Med Chem, 2023)
Values after ≈ are worked out from the molar mass of the structure shown.

Experiments:
[1] = target: T1, Protein deacetylase HDAC6 (Homo sapiens, UniProt Q9UBN7); test: Inhibition of full length TEV-cleavable N-terminal His6-tagged human recombinant HDAC6 using Ac-RGK (Ac)-AMC as substrate preincubated for 20 hrs followed by substrate addition and measured after 3 hrs by microplate reader analysis
T1 sequence (Q9UBN7 whole entry): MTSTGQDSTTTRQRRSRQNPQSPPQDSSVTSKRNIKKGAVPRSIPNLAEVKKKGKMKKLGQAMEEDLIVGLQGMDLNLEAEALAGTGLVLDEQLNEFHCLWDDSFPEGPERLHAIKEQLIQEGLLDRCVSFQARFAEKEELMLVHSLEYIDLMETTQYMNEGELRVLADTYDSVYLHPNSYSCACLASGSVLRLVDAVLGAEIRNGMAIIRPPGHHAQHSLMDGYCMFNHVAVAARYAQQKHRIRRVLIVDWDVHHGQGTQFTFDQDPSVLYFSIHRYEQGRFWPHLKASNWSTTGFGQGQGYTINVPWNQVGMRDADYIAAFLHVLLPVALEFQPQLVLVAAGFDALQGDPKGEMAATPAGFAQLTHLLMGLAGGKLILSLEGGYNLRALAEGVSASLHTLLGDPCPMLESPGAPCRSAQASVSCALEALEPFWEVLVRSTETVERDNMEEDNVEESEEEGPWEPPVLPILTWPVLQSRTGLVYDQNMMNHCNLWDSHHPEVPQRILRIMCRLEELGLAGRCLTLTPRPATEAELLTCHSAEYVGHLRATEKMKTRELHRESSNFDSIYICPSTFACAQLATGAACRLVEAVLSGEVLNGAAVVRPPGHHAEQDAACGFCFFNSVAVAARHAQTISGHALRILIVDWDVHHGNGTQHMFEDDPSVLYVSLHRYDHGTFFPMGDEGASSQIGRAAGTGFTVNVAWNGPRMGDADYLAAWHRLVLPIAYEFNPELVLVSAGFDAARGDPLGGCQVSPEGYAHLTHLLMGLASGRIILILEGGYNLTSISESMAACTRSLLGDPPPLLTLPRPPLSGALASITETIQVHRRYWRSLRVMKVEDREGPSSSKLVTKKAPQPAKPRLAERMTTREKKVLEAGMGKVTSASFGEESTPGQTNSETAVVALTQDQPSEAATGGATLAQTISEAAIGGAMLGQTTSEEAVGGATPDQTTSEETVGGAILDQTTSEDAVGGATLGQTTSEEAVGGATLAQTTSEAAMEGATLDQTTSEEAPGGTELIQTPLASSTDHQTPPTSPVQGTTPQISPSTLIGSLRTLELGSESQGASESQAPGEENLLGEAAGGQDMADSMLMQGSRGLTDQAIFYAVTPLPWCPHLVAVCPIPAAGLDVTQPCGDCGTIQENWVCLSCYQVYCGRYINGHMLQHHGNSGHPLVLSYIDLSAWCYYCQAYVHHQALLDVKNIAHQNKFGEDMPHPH

[2] = Aqueous solubility of the compound at pH 7.4; format: physicochemical
Histone deacetylase 2 = Histone deacetylase 2 (Homo sapiens, UniProt Q92769); test: Inhibition of human recombinant HDAC2 incubated for 15 mins by fluorimetry analysis
Sequence of Histone deacetylase 2 (Q92769 whole entry): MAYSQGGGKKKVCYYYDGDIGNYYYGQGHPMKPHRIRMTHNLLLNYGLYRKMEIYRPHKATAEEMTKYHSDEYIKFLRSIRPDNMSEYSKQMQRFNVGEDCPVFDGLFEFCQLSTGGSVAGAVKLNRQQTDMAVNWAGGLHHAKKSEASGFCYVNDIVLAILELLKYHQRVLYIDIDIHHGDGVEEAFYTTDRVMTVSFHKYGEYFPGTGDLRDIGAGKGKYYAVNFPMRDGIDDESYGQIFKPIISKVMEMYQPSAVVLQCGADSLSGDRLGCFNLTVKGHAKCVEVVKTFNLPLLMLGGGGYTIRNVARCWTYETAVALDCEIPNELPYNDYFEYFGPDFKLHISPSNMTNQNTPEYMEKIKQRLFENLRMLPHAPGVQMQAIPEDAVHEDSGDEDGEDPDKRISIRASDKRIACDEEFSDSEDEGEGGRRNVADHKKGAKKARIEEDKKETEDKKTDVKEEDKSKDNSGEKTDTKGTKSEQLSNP

[3] = target: T1, Protein deacetylase HDAC6; test: Stability of the compound assessed as full-length human HDAC6 mediated-drug degradation measured after 96 hrs by time-resolved mass spectrometry analysis; format: ADME
Histone deacetylase 9 = Histone deacetylase 9 (Homo sapiens, UniProt Q9UKV0); test: Inhibition of human recombinant HDAC9 incubated for 30 mins by fluorimetry analysis
Sequence of Histone deacetylase 9 (Q9UKV0 whole entry): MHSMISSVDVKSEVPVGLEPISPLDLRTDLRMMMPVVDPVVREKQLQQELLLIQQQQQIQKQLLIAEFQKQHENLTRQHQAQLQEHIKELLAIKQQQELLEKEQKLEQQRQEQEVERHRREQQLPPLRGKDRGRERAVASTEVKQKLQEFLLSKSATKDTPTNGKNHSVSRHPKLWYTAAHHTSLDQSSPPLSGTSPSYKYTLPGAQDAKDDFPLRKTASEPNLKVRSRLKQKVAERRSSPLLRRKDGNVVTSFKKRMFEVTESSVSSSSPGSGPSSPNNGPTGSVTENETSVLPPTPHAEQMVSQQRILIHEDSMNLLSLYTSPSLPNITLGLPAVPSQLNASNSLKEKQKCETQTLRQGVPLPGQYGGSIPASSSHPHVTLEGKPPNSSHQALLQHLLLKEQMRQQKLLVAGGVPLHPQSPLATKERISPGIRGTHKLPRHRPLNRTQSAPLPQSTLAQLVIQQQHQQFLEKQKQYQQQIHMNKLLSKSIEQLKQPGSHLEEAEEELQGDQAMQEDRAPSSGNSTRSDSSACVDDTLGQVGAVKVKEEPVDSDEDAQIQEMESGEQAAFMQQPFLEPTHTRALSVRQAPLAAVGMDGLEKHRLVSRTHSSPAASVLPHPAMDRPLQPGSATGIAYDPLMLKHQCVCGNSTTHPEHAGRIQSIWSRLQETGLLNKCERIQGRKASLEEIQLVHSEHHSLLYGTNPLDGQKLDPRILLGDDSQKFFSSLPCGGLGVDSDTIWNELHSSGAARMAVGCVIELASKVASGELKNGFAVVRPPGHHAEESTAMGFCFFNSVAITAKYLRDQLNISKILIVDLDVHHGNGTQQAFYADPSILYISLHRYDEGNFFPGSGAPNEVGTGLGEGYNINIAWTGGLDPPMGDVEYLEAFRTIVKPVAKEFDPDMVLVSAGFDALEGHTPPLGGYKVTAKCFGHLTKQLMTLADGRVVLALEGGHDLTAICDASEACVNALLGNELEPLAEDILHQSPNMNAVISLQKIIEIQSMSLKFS

Histone deacetylase 11 = target: T2, Histone deacetylase 11 (Homo sapiens, UniProt Q96DB2); test: Inhibition of human recombinant HDAC11 incubated for 30 mins by fluorimetry analysis
T2 sequence (Q96DB2 whole entry): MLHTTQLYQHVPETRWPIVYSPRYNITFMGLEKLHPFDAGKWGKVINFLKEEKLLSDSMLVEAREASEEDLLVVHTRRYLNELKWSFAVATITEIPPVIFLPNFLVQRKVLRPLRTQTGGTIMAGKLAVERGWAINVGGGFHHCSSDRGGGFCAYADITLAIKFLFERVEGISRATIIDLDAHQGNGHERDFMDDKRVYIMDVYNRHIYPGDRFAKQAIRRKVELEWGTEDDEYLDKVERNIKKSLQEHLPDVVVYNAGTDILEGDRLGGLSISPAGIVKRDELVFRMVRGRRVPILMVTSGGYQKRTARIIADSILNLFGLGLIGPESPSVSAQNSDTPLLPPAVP

Histone deacetylase 3 = Histone deacetylase 3 (Homo sapiens, UniProt O15379); test: Inhibition of human recombinant HDAC3 incubated for 10 mins by Spectrophotometric analysis
Sequence of Histone deacetylase 3 (O15379 whole entry): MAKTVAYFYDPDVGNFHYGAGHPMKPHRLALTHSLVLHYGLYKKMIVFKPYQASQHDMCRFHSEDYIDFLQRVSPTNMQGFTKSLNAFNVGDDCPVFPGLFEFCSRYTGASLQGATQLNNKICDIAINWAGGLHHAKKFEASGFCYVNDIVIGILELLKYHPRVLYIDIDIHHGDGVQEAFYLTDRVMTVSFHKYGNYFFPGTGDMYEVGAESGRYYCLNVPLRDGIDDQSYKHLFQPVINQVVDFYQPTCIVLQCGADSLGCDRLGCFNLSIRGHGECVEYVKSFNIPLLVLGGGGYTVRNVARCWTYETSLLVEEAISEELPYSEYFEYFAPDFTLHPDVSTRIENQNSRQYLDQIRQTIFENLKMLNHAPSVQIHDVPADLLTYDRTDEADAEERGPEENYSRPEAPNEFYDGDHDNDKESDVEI

Histone deacetylase 5 = Histone deacetylase 5 (Homo sapiens, UniProt Q9UQL6); test: Inhibition of human recombinant HDAC5 incubated for 30 mins by fluorimetry analysis
Sequence of Histone deacetylase 5 (Q9UQL6 whole entry): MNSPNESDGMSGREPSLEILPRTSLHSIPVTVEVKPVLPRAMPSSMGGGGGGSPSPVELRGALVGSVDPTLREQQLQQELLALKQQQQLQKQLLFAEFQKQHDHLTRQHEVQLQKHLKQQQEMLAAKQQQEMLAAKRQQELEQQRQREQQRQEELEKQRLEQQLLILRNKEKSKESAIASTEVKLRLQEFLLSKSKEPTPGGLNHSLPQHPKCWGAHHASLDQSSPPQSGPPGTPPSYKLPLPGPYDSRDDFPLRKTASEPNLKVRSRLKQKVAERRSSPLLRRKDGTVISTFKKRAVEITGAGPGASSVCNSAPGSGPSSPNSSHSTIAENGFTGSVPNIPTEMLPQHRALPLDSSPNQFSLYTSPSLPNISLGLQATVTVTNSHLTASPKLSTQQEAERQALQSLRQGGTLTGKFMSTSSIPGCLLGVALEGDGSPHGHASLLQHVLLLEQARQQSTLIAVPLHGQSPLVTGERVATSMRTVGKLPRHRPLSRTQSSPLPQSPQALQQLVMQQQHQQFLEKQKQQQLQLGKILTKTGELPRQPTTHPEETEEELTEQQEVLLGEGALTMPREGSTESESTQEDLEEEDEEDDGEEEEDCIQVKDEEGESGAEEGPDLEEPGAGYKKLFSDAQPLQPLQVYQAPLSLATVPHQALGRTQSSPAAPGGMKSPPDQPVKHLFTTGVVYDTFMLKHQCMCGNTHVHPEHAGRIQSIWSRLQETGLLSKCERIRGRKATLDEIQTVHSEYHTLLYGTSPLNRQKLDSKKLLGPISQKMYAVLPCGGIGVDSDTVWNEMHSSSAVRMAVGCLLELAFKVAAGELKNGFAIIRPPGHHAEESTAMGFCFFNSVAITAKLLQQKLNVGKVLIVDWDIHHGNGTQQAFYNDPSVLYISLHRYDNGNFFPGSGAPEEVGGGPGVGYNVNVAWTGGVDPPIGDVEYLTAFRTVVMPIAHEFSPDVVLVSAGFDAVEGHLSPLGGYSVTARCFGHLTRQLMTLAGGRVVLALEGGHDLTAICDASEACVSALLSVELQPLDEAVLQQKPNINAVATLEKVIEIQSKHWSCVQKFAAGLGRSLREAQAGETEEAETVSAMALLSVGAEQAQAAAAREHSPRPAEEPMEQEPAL

[4] = target: T1, Protein deacetylase HDAC6; test: Inhibition of human recombinant HDAC6 incubated for 30 mins by fluorimetry analysis
[5] = target: T3, Polyamine deacetylase HDAC10 (Homo sapiens, UniProt Q969S8); test: Inhibition of human recombinant HDAC10 incubated for 45 mins by fluorimetry analysis
T3 sequence (Q969S8 whole entry): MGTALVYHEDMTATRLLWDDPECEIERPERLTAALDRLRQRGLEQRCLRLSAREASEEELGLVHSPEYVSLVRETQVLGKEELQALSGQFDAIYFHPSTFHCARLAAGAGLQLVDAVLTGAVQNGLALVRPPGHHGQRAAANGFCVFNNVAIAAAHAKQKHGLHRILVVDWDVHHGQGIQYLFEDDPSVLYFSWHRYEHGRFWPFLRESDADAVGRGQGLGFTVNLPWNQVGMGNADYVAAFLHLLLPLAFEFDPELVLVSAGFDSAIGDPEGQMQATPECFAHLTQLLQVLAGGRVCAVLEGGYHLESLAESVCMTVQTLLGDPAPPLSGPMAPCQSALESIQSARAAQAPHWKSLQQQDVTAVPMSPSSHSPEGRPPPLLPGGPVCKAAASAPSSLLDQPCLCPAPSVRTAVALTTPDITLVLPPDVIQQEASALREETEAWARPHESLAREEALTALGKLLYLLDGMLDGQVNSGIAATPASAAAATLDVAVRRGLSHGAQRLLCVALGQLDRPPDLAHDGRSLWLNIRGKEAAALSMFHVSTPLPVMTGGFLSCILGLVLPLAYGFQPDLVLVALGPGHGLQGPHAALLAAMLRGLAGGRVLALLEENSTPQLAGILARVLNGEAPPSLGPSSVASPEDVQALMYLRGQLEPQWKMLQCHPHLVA

| SMILES | IC50 [1] | solubility [2] | IC50 (Histone deacetylase 2) | Stability [3] | IC50 (Histone deacetylase 9) | IC50 (Histone deacetylase 11) | IC50 (Histone deacetylase 3) | IC50 (Histone deacetylase 5) | IC50 [4] | IC50 [5] |
| --- | --- | --- | --- | --- | --- | --- | --- | --- | --- | --- |
| CS(=O)(=O)NCC(Nc1ncc(-c2nnc(C(F)F)o2)cn1)c1ccc(OC(F)(F)F)cc1 (centres undefined) | 0.00158 µM | 110 µM (≈ 54.4 µg/mL) | > 100 µM | Unstable | 19 µM | > 100 µM | > 100 µM | > 100 µM | 0.58 µM | > 100 µM |
| O=C(NO)c1cnc(NC2(c3ccccc3)CCC(F)(F)CC2)nc1 | 0.00398 µM | 810 µM (≈ 282 µg/mL) | 71 µM | Stable | 19 µM | 13 µM | 87 µM | 3.7 µM | < 0.01 µM | 18 µM |
| FC(F)c1nnc(-c2ccc(Cn3nnc(-c4ccccn4)n3)nc2)o1 | 0.001 µM | 410 µM (≈ 146 µg/mL) | > 100 µM | Unstable | > 100 µM | > 100 µM | > 100 µM | > 100 µM | 0.19 µM | > 100 µM |
| COc1ccccc1-c1nnn(Cc2ccc(-c3nnc(C(F)F)o3)cn2)n1 | 0.00158 µM | 60 µM (≈ 23.1 µg/mL) | > 100 µM | – | > 100 µM | > 100 µM | > 100 µM | > 100 µM | 0.17 µM | > 100 µM |
